Laboratory results reported in patent publication US9663478B2, “Benzotriazine oxides as drugs targeting Mycobacterium tuberculosis” (priority 2011, dated 2017).
Values after ≈ are worked out from the molar mass of the structure shown. Like-named read-outs stand apart in the source and are kept apart here.

Legend:
[1] = tested on: Salmonella typhimurium tester strain TA100; assay: Salmonella/microsome plate incorporation assay (Ames screen), TA100; format: cell-based
Source text: (§1) A liability in developing any bioreductively-activated antimicrobial drug is the potential for mutagenicity. Because the basis for activity of these compounds is the generation of intermediate radical species, undesirable mutagenicity poses a risk, as has been documented for many classes of bioreductive drugs, including the BTO tirapazamine (TPZ).^19,20 The most convenient methodology for assessing the potential to induce genetic damage is to use the plate incorporation method with Salmonella typhimurium strains TA98 and TA100, commonly known as the Ames assay. The Salmonella tester strains have mutations in the histidine operon, a mutation that leads to defective lipopolysaccharide (rfa), and a deletion that covers genes involved in the synthesis of biotin (bio) and in the repair of ultraviolet-induced DNA damage (uvrB).^21,22 These mutations make the strains more permeable to many molecules and increase their susceptibility to the mutagenic effects of these molecules. Given that the hypothesized mechanism of the BTO compounds is to selectively form cytotoxic radical species in bacteria over mammalian cells, a microbial mutagenicity assay is not ideal, but was used to benchmark their activities in this assay. […] Individual plate counts and their means and standard deviations, along with the condition of the background lawn, are presented in SI Table 2.
(§2) Experimental compounds were screened for microbial mutagenicity activity using the plate incorporation method with Salmonella typhimurium tester strains TA98 and TA100, in the presence and absence of an Aroclor 1254-induced rat-liver metabolic activation system containing 10% S9 (MA). The presence of the appropriate genetic characteristics was verified for the strains used in this study. Stock solutions were made by dissolving each test sample in dimethyl sulfoxide (DMSO) at 5 mg/ml. These initial stock concentrations were then serially diluted to achieve dose formulations of 100, 50, 10, 5, 1, 0.5, and 0.1 μg/plate (dosing volume 100 μl). Test plates were compared with the control plates for their revertant count and for the condition of the background bacterial lawn. A test article was considered a mutagen when the mean number of revertant colonies on the test plates exceeds the mean solvent control counts by at least a two-fold margin. Dose relatedness was also taken into account when evaluating a mutagenic response. Cytotoxicity was estimated by several parameters: a substantial decrease in the number of revertant colonies on the test plates, clearing or absence of the background bacterial lawn growth, formation of pinpoint nonrevertant colonies, or complete absence of bacterial growth.

[2] = tested on: Salmonella typhimurium tester strain TA98; assay: Salmonella/microsome plate incorporation assay (Ames screen), TA98; format: cell-based; conditions: TA98, with metabolic activation (10% S9), 2 μg per plate, positive control
Source text: as §1, §2

Mtb H37Rv [3] = assay: TB MIC - SRI, resazurin-based microplate assay; format: cell-based, Mycobacterium tuberculosis; conditions: for MIC: Mycobacterium tuberculosis, H37RV
Mtb H37Rv [4] = assay: TB MIC - ITR (UIC), Institute for Tuberculosis Research; format: cell-based, Mycobacterium tuberculosis; conditions: for MIC: Mycobacterium tuberculosis, H37RV, read-out: TB MIC - ITR; for TB MIC - UIC: Tables P1, P2
NRP Mtb H37Rv cells = assay: Low-oxygen recovery assay (LORA) MIC; format: cell-based, Mycobacterium tuberculosis; conditions: for MIC: Mycobacterium tuberculosis, H37RV, read-out: LORA MIC - ITR; for LORA MIC: Tables P1, P2, non-replicating M. tuberculosis
[5] = TA100, with metabolic activation (10% S9), 2 μg per plate, positive control
[6] = Tables 1-4 and text, read-out: TB MIC - SRI
[7] = TA100, without metabolic activation, 5 μg per plate
[8] = Tables P1-P3, read-out: TB MIC - SRI

Compound | VERO Tox-SRI (Vero cells; African green monkey, 72 h) | MIC (Mtb H37Rv [3]; [8]) | TB MIC - UIC (Mtb H37Rv [4]) | LORA MIC (NRP Mtb H37Rv cells) | other results
Nc1ccc2cc3ccccc3cc2c1 [Compound 2AN] |  |  |  |  | Mean revertants per plate [1, 5]: 490.0; Ratio treated/solvent [1, 5]: 2.9; Ratio treated/solvent [2]: 15.3
CN(C)c1n[n+]([O-])c2cc3c(cc2[n+]1[O-])CCC3 [Compound 20s, 3-(dimethylamino)-7,8-dihydro-6H-indeno[5,6-e][1,2,4]triazine 1,4-dioxide] |  |  |  |  | Vero Tox CC50 (Vero cells; African green monkey, 72 h): 24 µg/mL; MIC (Mtb H37Rv [3]; Table 5, read-out: MIC, H37Rv): 0.62 µg/mL (≈ 2.52 µM); MIC (Mtb H37Rv [4]; Tables 1-4): 0.3 µg/mL (≈ 1.22 µM); MIC (NRP Mtb H37Rv cells): 1.5 µg/mL (≈ 6.09 µM)
CN(CCc1ccccc1)c1n[n+]([O-])c2cc3c(cc2[n+]1[O-])CCC3 [Compound 20u, 3-(methyl(phenethyl)amino)-7,8-dihydro-6H-indeno[5,6-e][1,2,4]triazine 1,4-dioxide] |  |  |  |  | Vero Tox CC50 (Vero cells; African green monkey, 72 h): 40 µg/mL; MIC (Mtb H37Rv [3]; Table 5, read-out: MIC, H37Rv): 0.31 µg/mL (≈ 0.922 µM); MIC (Mtb H37Rv [4]; Tables 1-4): 0.24 µg/mL (≈ 0.713 µM); MIC (NRP Mtb H37Rv cells; NRP Mtb, Tables 1-4 and text): 0.44 µg/mL (≈ 1.31 µM)
O=S1(=O)CCN(c2n[n+]([O-])c3cc4c(cc3[n+]2[O-])CCC4)CC1 [Compound 20v, 3-(thiomorpholinosulfone-1-yl)-7,8-dihydro-6H-indeno[5,6-e][1,2,4]triazine 1,4-dioxide] |  |  |  |  | Vero Tox CC50 (Vero cells): 17 µg/mL; TB MIC - SRI (Mtb H37Rv [3]; Tables 1-4 and text): 5.0 µg/mL; TB MIC - ITR (Mtb H37Rv [4]; Tables 1-4): 15 µg/mL; LORA MIC - ITR (NRP Mtb H37Rv cells; NRP Mtb, Tables 1-4 and text): 30 µg/mL
CC1CCCCN1c1n[n+]([O-])c2cc3c(cc2[n+]1[O-])CCC3 (centres unmarked) [Compound 20w, 3-(2-methylpiperidin-1-yl)-7,8-dihydro-6H-indeno[5,6-e][1,2,4]triazine 1,4-dioxide] |  |  |  |  | Vero Tox CC50 (Vero cells; African green monkey, 72 h): >50 µg/mL; MIC (Mtb H37Rv [3]; Table 5, read-out: MIC, H37Rv): 1.2 µg/mL (≈ 4 µM); MIC (Mtb H37Rv [4]; Tables 1-4): 0.66 µg/mL (≈ 2.2 µM); MIC (NRP Mtb H37Rv cells; NRP Mtb, Tables 1-4 and text): 0.47 µg/mL (≈ 1.56 µM)
CS(=O)(=O)N1CCN(c2n[n+]([O-])c3cc4c(cc3[n+]2[O-])CCC4)CC1 [Compound 20x, 3-(4-(methylsulfonyl)piperazin-1-yl)-7,8-dihydro-6H-indeno[5,6-e][1,2,4]triazine 1,4-dioxide] |  |  |  |  | Vero Tox CC50 (Vero cells; African green monkey, 72 h): >50 µg/mL; MIC (Mtb H37Rv [3]; [6]): 2.5 to 5 µg/mL (≈ 6.84 to 13.7 µM); TB MIC - SRI (Mtb H37Rv [3]; Tables 1-4 and text): 5.0 µg/mL; MIC (Mtb H37Rv [4]; Tables 1-4): 13 µg/mL (≈ 35.6 µM); MIC (NRP Mtb H37Rv cells; NRP Mtb, Tables 1-4 and text): 15 µg/mL (≈ 41 µM)
CO[C@H]1/C=C/O[C@@]2(C)Oc3c(C)c(O)c4c(O)c(c(/C=N/N5CCN(C)CC5)c(O)c4c3C2=O)NC(=O)/C(C)=C\C=C\[C@H](C)[C@H](O)[C@@H](C)[C@@H](O)[C@@H](C)[C@H](OC(C)=O)[C@@H]1C [RIF, Rifampin, reference compound] |  |  |  |  | Vero Tox CC50 (Vero cells; African green monkey, 72 h): >50 µg/mL; MIC (Mtb H37Rv [3]; [6]): 0.003 µg/mL (≈ 0.00365 µM); MIC (Mtb H37Rv [4]; Tables 1-4): 0.041 µg/mL (≈ 0.0498 µM); MIC (NRP Mtb H37Rv cells; NRP Mtb, Tables 1-4 and text): 2 µg/mL (≈ 2.43 µM)
[N-]=[N+]=[N-].[Na+] [SA] |  |  |  |  | Mean revertants per plate [1, 7]: 1620.0; Ratio treated/solvent [1, 7]: 10.0
[O-][n+]1nc(NC2CC2)[n+]([O-])c2ccc(F)cc21 [SRI-012274] | 3.5 | 0.312 µg/mL (≈ 1.32 µM) | 0.93 µg/mL | 2.8 µg/mL | 
[O-][n+]1nc(NC2CCCCC2)[n+]([O-])c2ccc(F)cc21 [SRI-012275] | <2.5 | 0.625 µg/mL (≈ 2.25 µM) | 0.68 µg/mL | 0.47 µg/mL | 
[O-][n+]1nc(NC2CCC2)[n+]([O-])c2ccc(F)cc21 [SRI-012276] | 2.5 | 0.312 µg/mL (≈ 1.25 µM) | 0.4 µg/mL | 0.88 µg/mL | 
[O-][n+]1nc(NC2CCCC2)[n+]([O-])c2ccc(F)cc21 [SRI-012277] | 2.3 | 0.312 µg/mL (≈ 1.18 µM) | 0.33 µg/mL | 0.34 µg/mL | 
CCC(COC)Nc1n[n+]([O-])c2cc(F)ccc2[n+]1[O-] (centres unmarked) [SRI-012278] | 6.3 | 5 µg/mL (≈ 17.7 µM) | 2 µg/mL | 1.87 µg/mL | 
CCC(CC)Nc1n[n+]([O-])c2cc(F)ccc2[n+]1[O-] [SRI-012279] | 4.4 | 1.25 µg/mL (≈ 4.69 µM) | 0.49 µg/mL | 0.71 µg/mL | 
CC(C)CC(C)Nc1n[n+]([O-])c2cc(F)ccc2[n+]1[O-] (centres unmarked) [SRI-012281] | <2.5 | 1.25 µg/mL (≈ 4.46 µM) | 0.55 µg/mL | 0.4 µg/mL | 
[O-][n+]1nc(NC2CCCCCC2)[n+]([O-])c2ccc(F)cc21 [SRI-012282] | <2.5 | 0.625 µg/mL (≈ 2.14 µM) | 0.39 µg/mL | 0.21 µg/mL | 
CC(Nc1n[n+]([O-])c2cc(F)ccc2[n+]1[O-])C(C)(C)C (centres unmarked) [SRI-012283] | <2.5 | 1.25 µg/mL (≈ 4.46 µM) | 0.5 µg/mL | 0.42 µg/mL | 
CCNc1n[n+]([O-])c2cc(F)ccc2[n+]1[O-] [SRI-012284] | 4.6 | 0.625 µg/mL (≈ 2.79 µM) | 0.35 µg/mL | 0.75 µg/mL | 
CCNc1n[n+]([O-])c2cc3c(cc2[n+]1[O-])CCC3 [SRI-012286] | 36.0 |  | 0.95 µg/mL | 0.83 µg/mL | MIC (Mtb H37Rv [3]; read-out: Activity against H37Rv, Table P4): 1.25 µg/mL (≈ 5.08 µM); MIC (Mtb H37Rv [3]; read-out: TB MIC - SRI, Tables P1-P3): 1.25 µg/mL (≈ 5.08 µM)
[O-][n+]1nc(NC2CC2)[n+]([O-])c2ccc(Cl)cc21 [SRI-012301] | 1.36 | 0.625 µg/mL (≈ 2.47 µM) | 0.21 µg/mL | 0.22 µg/mL | 
[O-][n+]1nc(NC2CCC2)[n+]([O-])c2ccc(Cl)cc21 [SRI-012302] | 1.6 | 0.156 µg/mL (≈ 0.585 µM) | < 0.125 µg/mL | < 0.125 µg/mL | 
[O-][n+]1nc(NC2CCCCC2)[n+]([O-])c2ccc(Cl)cc21 [SRI-012303] | 2.62 | 0.625 µg/mL (≈ 2.12 µM) | 0.94 µg/mL | 0.63 µg/mL | 
CCC(COC)Nc1n[n+]([O-])c2cc(Cl)ccc2[n+]1[O-] (centres unmarked) [SRI-012304] | 2.6 | 1.25 µg/mL (≈ 4.18 µM) | 1.46 µg/mL | 0.78 µg/mL | 
CCNc1n[n+]([O-])c2cc(Cl)ccc2[n+]1[O-] [SRI-012306] | 2.65 | 1.25 µg/mL (≈ 5.19 µM) | < 0.125 µg/mL | 0.41 µg/mL | 
